For 42 compounds, IC50 and melting point results are on record in patent US9573938B2 (priority 2012, dated 2017).

The first series concerns the target 2009 H1N1 influenza A endonuclease (PAN domain) (Influenza A virus, UniProt C3W5S0). In words: biochemical. As to conditions: 500 nM or 50 nM enzyme; fluorescence change over time at 37 degrees Celsius; read-out: IC50 (uM) using either 500 nM or 50 nM enzyme. Set-up: species or system Influenza A (pandemic 2009 H1N1).
Consider `N#Cc1cccc(-c2ncc(O)c(=O)[nH]2)c1` [3-(5-Hydroxy-6-oxo-1,6-dihydropyrimidin-2-yl)benzonitrile], for which the IC50 was 0.25 µM.

As to `O=c1[nH]c(-c2ccc(F)cc2)ccc1O` [6-(4-Fluoro-phenyl)-3-hydroxypyridin-2(1H)-one], the half-inhibitory concentration (IC50) was found to be 0.43 µM.

As to `O=c1[nH]c(-c2cccc(-c3nnn[nH]3)c2)ncc1O` [2-(3-(1H-Tetrazol-5-yl)phenyl)-5-hydroxypyrimidin-4(3H)-one], the half-maximal inhibitory concentration (IC50) was found to be 0.48 µM.

For the compound `O=c1[nH]nc(-c2ccc(-c3nnn[nH]3)cc2)cc1O` [6-(4-(1H-Tetrazol-5-yl)phenyl)-4-hydroxypyridazin-3(2H)-one], the half-inhibitory concentration (IC50) was determined as 3 µM.

In the case of `O=c1[nH]cc(-c2ccc(F)cc2)cc1O` [5-(4-Fluorophenyl)-3-hydroxypyridin-2(1H)-one], the concentration for half-maximal inhibition (IC50) was 0.73 µM.

`N#Cc1ccc(-c2ncc(O)c(=O)[nH]2)cc1` [4-(5-Hydroxy-6-oxo-1,6-dihydropyrimidin-2-yl)benzonitrile]: the IC50 turned out to be 0.52 µM.

For the compound `O=c1[nH]c(-c2ccc(-c3nnn[nH]3)cc2)ncc1O` [2-(4-(1H-Tetrazol-5-yl)phenyl)-5-hydroxypyrimidin-4(3H)-one], the IC50 came to 0.15 µM.

Staying with this series, now noted: IC50 (uM) using either 500 nM or 50 nM enzyme, fluorescence change over time at 37 degrees Celsius.
On to `O=c1[nH]c(-c2ccc(F)cc2)c(-c2cccc(-c3nnn[nH]3)c2)cc1O` [5-(3-(1H-Tetrazol-5-yl)phenyl)-6-(4-fluorophenyl)-3-hydroxypyridin-2(1H)-one], for which inhibition was half-maximal at 0.034 µM (IC50).

In turn, `O=C(O)c1cccc(-c2cc(O)c(=O)[nH]c2-c2cccc(C(=O)O)c2)c1` [3,3′-(5-Hydroxy-6-oxo-1,6-dihydropyridine-2,3-diyl)dibenzoic acid] had an IC50 of 0.7 µM.

Take `O=C(O)c1ccc(-c2c[nH]c(=O)c(O)c2)cc1` [4-(5-Hydroxy-6-oxo-1,6-dihydropyridin-3-yl)benzoic acid]: the midpoint of inhibition, the IC50, lay at 0.51 µM.

In turn, `CC(C)(C)c1ccc(-c2ccc(O)c(=O)[nH]2)cc1` [6-(4-(tert-Butyl)phenyl)-3-hydroxypyridin-2(1H)-one] yielded an IC50 of 1.6 µM.

As to `NC(=O)c1cccc(-c2cc(O)c(=O)[nH]c2-c2cccc(C(N)=O)c2)c1`, the IC50 worked out at 0.11 µM.

Compound `O=c1[nH]c(Br)c(Br)cc1O` [5,6-Dibromo-3-hydroxypyridin-2(1H)-one] had an IC50 of 1.5 µM.

`O=C(O)c1cccc(-c2cc(O)c(=O)[nH]c2-c2ccc(F)cc2)c1` [3-(2-(4-Fluorophenyl)-5-hydroxy-6-oxo-1,6-dihydropyridin-3-yl)benzoic acid] showed a 50% inhibitory concentration (IC50) of 0.035 µM.

`O=C(O)c1ccc(-c2cc(O)c(=O)[nH]c2-c2ccc(C(=O)O)cc2)cc1` [4,4′-(5-hydroxy-6-oxo-1,6-dihydropyridine-2,3-diyl)dibenzoic acid] returned an IC50 of 0.9 µM.

As to `O=c1[nH]c(-c2cccc(F)c2)c(-c2cccc(F)c2)cc1O` [5,6-bis(3-Fluorophenyl)-3-hydroxypyridin-2(1H)-one], the 50% inhibitory concentration (IC50) stood at 0.044 µM.

The compound `O=c1[nH]cc(-c2ccc(-c3nnn[nH]3)cc2)cc1O` [5-[4-(1H-Tetrazol-5-yl)phenyl]-3-hydroxypyridin-2(1H)-one] returned an IC50 of 0.37 µM.

For `O=c1[nH]cc(Br)cc1O` [5-Bromo-3-hydroxypyridin-2(1H)-one], the IC50 is 5 µM.

On to `O=c1[nH]cc(-c2cccc(F)c2)cc1O` [5-(3-Fluorophenyl-3-hydroxypyridin-2(1H)-one], for which the half-inhibitory concentration (IC50) was determined as 0.74 µM.

In turn, `NC(=O)c1ccc(-c2cc(O)c(=O)[nH]c2-c2ccc(C(N)=O)cc2)cc1` displayed an IC50 of 0.23 µM.

`O=C(O)c1cccc(-c2c[nH]c(=O)c(O)c2)c1` [3-(5-Hydroxy-6-oxo-1,6-dihydropyridin-3-yl)benzoic acid] registered an IC50 of 1.79 µM.

`O=c1[nH]c(-c2ccc(-c3nnn[nH]3)cc2)ccc1O` [6-[4-(1H-tetrazol-5-yl)phenyl]-3-hydroxypyridin-2(1H)-one]: 0.85 µM corresponded to half-maximal inhibition (IC50).

As for `O=c1[nH]cc(-c2cccc(-c3nnn[nH]3)c2)cc1O` [5-[3-(1H-Tetrazol-5-yl)phenyl]-3-hydroxypyridin-2(1H)-one], the IC50 is 0.85 µM.

With `O=c1[nH]c(Br)c(-c2ccc(F)cc2)cc1O` [6-Bromo-5-(4-fluorophenyl)-3-hydroxypyridin-2(1H)-one], 4.2 µM corresponded to half-maximal inhibition (IC50).

For `N#Cc1ccc(Nc2cc(O)c(=O)[nH]c2-c2ccc(F)cc2)cc1` [4-((2-(4-Fluorophenyl)-5-hydroxy-6-oxo-1,6-dihydropyridin-3-yl)amino)benzonitrile], half-maximal inhibition (IC50) required 1 µM.

The compound `COc1ccc(-c2ccc(O)c(=O)[nH]2)cc1` [3-Hydroxy-6-(4-methoxyphenyl)pyridin-2(1H)-one] came in with an IC50 of 1.2 µM.

`N#Cc1ccc(-c2ccc(O)c(=O)[nH]2)cc1` [6-(4-Cyanophenyl-3-hydroxypyridin-2(1H)-one] showed a half-inhibitory concentration (IC50) of 1.2 µM.

Regarding `O=c1[nH]c(C2=CCCCC2)ccc1O` [6-(Cyclohex-1-en-1-yl)-3-hydroxypyridin-2(1H)-one], the IC50 amounted to 0.75 µM.

The compound `O=c1[nH]c(-c2ccc(O)c(O)c2)ccc1O` [6-(3,4-Dihydroxyphenyl)-3-hydroxypyridin-2(1H)-one] gave an IC50 of 0.6 µM.

For `O=c1[nH]c(-c2ccc([N+](=O)[O-])cc2)c(-c2ccc([N+](=O)[O-])cc2)cc1O` [3-Hydroxy-5,6-bis(4-nitrophenyl)pyridin-2(1H)-one], the IC50 came out at 0.72 µM.

Take `O=c1[nH]c(C2CCCCC2)ccc1O` [6-Cyclohexyl-3-hydroxypyridin-2(1H)-one]: the IC50 worked out at 2.5 µM.

`COc1cccc(-c2ccc(O)c(=O)[nH]2)c1` [6-(3-Methoxyphenyl)-3-hydroxypyridin-2(1H)one] displayed a half-inhibitory concentration (IC50) of 0.54 µM.

On to `O=c1[nH]cc(Cc2ccc(F)cc2)cc1O` [5-(4-Fluorobenzyl)-3-hydroxypyridin-2(1H)-one], for which the IC50 is 8.6 µM.

As to `O=c1[nH]c(-c2cccc(F)c2)ccc1O` [6-(3-Fluorophenyl)-3-hydroxypyridin-2(1H)-one], the IC50 was found to be 0.53 µM.

On to `N#Cc1cccc(-c2cc(O)c(=O)[nH]c2-c2ccc(F)cc2)c1` [3-(2-(4-Fluorophenyl)-5-hydroxy-6-oxo-1,6-dihydropyridin-3-yl)benzonitrile], for which the IC50 was 0.049 µM.

`O=c1[nH]c(-c2ccc(-c3nnn[nH]3)cc2)c(-c2ccc(F)cc2)cc1O` [6-(4-(1H-Tetrazol-5-yl)phenyl)-5-(4-fluorophenyl)-3-hydroxypyridin-2(1H)-one] had an IC50 of 0.018 µM.

On to `O=c1[nH]c(-c2ccc(C(F)(F)F)cc2)ccc1O` [3-Hydroxy-6-(4-(trifluoromethyl)phenyl)pyridin-2(1H)-one], for which the IC50 was 0.4 µM.

With `N#Cc1ccc(-c2c[nH]c(=O)c(O)c2)cc1` [5-(p-Cyanophenyl-3-hydroxypyridin-2(1H)-one], the IC50 turned out to be 6.07 µM.

In turn, `O=c1[nH]cc(Cl)cc1O` [5-Chloro-3-hydroxypyridin-2(1H)-one] yielded an IC50 of 5 µM.

As to `O=c1[nH]c(Cc2ccc(-c3ccccc3)cc2)c(-c2ccc(F)cc2)cc1O` [6-([1,1′-Biphenyl]-4-ylmethyl)-5-(4-fluorophenyl)-3-hydroxypyridin-2(1H)-one], inhibition was half-maximal at 0.12 µM (IC50).

`O=c1[nH]cc(C2CCCCC2)cc1O` [5-Cyclohexyl-3-hydroxypyridin-2(1H)-one] gave an IC50 of 2.1 µM.

Test system in another series: not given
Test: not given
Details: not given
`O=c1[nH]c(-c2ccc(F)cc2)c(-c2ccc(F)cc2)cc1O` [5,6-bis(4-Fluorophenyl)-3-hydroxypyridin-2(1H)-one] showed a melting point of 152 to 157 °C.
